Results on one substance are retold here after US11129870B2, “Compositions and methods for uncoupling TrkB receptor from PLC gamma 1 for the treatment of epilepsy and anxiety-like disorder” (DUKE UNIVERSITY, priority 2010, dated 2021).

Where no end group is shown, it is not given here. [ ]: non-standard residue; d: D form. pY = N[C@@H](Cc1ccc(OP(=O)(O)O)cc1)C(=O)O

For test [1], the system named is PLCγ1. Kind of test: p-PLCγ1 in brain of naive mice after intravenous peptide (western blot). The class given is in vivo, mouse. The protocol: An important issue with respect to usefulness of Tat-pTRKBY816 is whether, following peripheral administration, the peptide can inhibit PLCγ1 activation in the brain in vivo. To test this idea, adult C57/B6 mice underwent tail vein injection of vehicle (normal saline [NS]) or Tat-scrambled-pTrkY816 or Tat-pTrkBY816 (10 mg/kg, 2 mice per group). Animals were sacrificed 3 hours post administration, the hippocampus dissected and homogenate prepared for western blotting. […] These findings support the assertion that the peptide passes through the blood brain barrier and inhibits PLCγ1 activation in vivo.
Animals were anesthetized with pentobarbital (200 mg/kg i.p.) and decapitated, and the head was quickly immersed in liquid nitrogen for 4 s to rapidly cool the brain. The hippocampi were rapidly dissected on ice and homogenized in RIPA buffer, incubated on ice for 15 min, and centrifuged at 200,000×g for 10 min at 4° C. The supernatant was collected and stored at −80° C. until further analysis. […] The immunoreactivity of individual bands on western blots was measured by ImageJ software (National Institutes of Health) and normalized to PLCγ1, Akt or ERK contents. Equivalent protein loading among samples was monitored by β-actin (1:10000; Sigma) levels. […]

Test [2] has as its system ERK. Kind of test: p-ERK in hippocampal lysates of naive mice after i.v. peptide. It counts as in vivo, mouse. The following applies: 10 mg/kg i.v., 3 hr. On the procedure: (§1) Animals were anesthetized with pentobarbital (200 mg/kg i.p.) and decapitated, and the head was quickly immersed in liquid nitrogen for 4 s to rapidly cool the brain. The hippocampi were rapidly dissected on ice and homogenized in RIPA buffer, incubated on ice for 15 min, and centrifuged at 200,000×g for 10 min at 4° C. The supernatant was collected and stored at −80° C. until further analysis. TrkB was immunoprecipitated using TrkB antibody (1:1000, Millipore) and the lysates were incubated with 100 μL of protein A-Sepharose beads (Roche) overnight in 4° C. The beads/immune complexes were pelleted in a microcentrifuge and then resuspended in RIPA buffer and this procedure was repeated two additional times before adding 2×SDS PAGE sample buffer and boiled. After SDS PAGE, the gels were probed with TrkB and PLCγ1 antibody (1:1000, Cell signaling). Western blotting was conducted as previously described (He et al., 2010). Cell lysate and hippocampal homogenate were probed with p-PLCγ1 (pY783), PLCγ1, p-Akt (pS473), Akt, p-ERK (p44/p42) and ERK (1:1000, Cell signaling). The immunoreactivity of individual bands on western blots was measured by ImageJ software (National Institutes of Health) and normalized to PLCγ1, Akt or ERK contents. Equivalent protein loading among samples was monitored by β-actin (1:10000; Sigma) levels. […]

Test [3] has as its target T1, TrkB-PLCγ1 binding (Mus musculus, UniProt Q62077).
T1 construct: The hippocampi were rapidly dissected on ice and homogenized in RIPA buffer; from tissue; host or cells: hippocampus of naïve C57BL/6 mice
T1 sequence (Q62077 1-1302): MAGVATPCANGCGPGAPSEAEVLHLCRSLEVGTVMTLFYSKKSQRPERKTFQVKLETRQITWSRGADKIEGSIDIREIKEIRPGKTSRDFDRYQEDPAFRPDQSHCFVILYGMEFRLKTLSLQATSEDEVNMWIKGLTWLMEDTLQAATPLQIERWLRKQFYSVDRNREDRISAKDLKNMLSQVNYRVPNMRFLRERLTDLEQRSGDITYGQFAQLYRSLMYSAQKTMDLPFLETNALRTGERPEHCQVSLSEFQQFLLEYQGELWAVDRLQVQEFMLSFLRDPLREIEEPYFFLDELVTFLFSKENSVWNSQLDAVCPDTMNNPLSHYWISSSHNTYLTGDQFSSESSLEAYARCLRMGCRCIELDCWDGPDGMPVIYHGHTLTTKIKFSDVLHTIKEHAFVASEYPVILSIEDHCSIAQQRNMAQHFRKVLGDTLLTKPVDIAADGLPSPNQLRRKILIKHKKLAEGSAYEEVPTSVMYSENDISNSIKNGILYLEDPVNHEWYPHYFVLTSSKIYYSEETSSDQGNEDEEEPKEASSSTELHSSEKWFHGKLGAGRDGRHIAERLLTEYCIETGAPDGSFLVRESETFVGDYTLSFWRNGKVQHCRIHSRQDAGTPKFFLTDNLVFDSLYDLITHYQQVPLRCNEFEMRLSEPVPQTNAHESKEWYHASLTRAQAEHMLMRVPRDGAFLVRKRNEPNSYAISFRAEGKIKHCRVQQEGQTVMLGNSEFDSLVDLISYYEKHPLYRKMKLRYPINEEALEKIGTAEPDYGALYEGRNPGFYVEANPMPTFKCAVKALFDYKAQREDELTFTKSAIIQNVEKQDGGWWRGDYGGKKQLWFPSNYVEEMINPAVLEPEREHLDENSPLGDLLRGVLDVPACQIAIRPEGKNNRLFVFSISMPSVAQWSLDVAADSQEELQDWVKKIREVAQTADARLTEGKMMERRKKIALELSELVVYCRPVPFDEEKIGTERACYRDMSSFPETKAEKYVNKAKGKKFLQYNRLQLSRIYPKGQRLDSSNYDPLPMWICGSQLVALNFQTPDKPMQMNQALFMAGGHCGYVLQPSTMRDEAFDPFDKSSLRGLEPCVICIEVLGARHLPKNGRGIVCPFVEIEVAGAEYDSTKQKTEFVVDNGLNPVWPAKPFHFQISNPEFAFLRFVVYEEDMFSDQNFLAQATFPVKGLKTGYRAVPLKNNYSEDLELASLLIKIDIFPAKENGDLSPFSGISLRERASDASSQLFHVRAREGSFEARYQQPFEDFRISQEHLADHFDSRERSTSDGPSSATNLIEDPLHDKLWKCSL
Nature of the test: Co-immunoprecipitation of TrkB and PLCγ1 from hippocampal homogenates after i.v. peptide. It counts as in vivo. The following applies: 10 mg/kg i.v., 3 hr, hippocampus, compared to Scr. On the procedure:
as §1

On to “YGRKKRRQRRR-LQNLAKASPVpYLDI (YGRKKRRQRRRLQNLAKASPV[pY]LDI) [pY816]”, for which the “reduction of p-PLCγ1 (pY783) immunoreactivity” value in test [1] (10 mg/kg i.v., 3 hr, hippocampal lysates, in comparison to Scr) is recorded as around 50%. In test [1] (10 mg/kg tail vein, 3 hours post administration, vs saline or scrambled peptide), the “phospho-PLCγ1 in brain homogenate” value is listed as “reduced the phosphor-PLCγ1”. The “p-ERK in hippocampal lysates” value in test [2] was “neither p-Akt nor p-ERK was affected”. In test [3], the “co-immunoprecipitation of TrkB and PLCγ1” value was “inhibited the co-immunoprecipitation of TrkB and PLCγ1”.
